{
  "source": "patent US9981916B2",
  "about": "(Genentech, Inc., priority 2013, dated 2018)",
  "data": [
    {"molecular_target": "T1, RORc ligand binding domain (Homo sapiens, UniProt P51449)", "T1 construct": "host or cells: E. coli", "T1 sequence (P51449 269-508 limits assumed)": "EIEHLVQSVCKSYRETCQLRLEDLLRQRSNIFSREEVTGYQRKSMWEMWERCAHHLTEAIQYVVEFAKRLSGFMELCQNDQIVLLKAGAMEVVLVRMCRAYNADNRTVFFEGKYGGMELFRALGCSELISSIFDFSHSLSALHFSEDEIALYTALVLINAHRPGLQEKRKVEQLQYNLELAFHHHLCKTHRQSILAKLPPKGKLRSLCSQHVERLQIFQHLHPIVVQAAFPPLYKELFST", "assay": "In vitro RORc ligand binding assay (25-[3H]hydroxycholesterol displacement, filter binding)", "conditions": "6 nM 25-[3H]hydroxycholesterol, 0.6 ug/mL RORc receptor, 3 h at 25° C.", "experimental": "Example 17: In Vitro RORc Ligand Binding Assay\nThis assay was used to determine a compound's potency in inhibiting activity of RORc by determining, Kiapp, IC50, or percent inhibition values.\nOn day of the assay, 100 uL of 0.05% CHAPS (in deionized H2O) was added to all wells of the GFB Unifilter plate and allowed soak for 1 h. A wash buffer of 50 mM HEPES (pH 7.4), 150 mM NaCl, and 5 mM MgCl2 was prepared to wash the filter plate. To prepare an assay buffer, BSA was added to the wash buffer to reach 0.01% and DTT was added to reach 1 mM.\nFor IC50 mode, 10 mM compound stocks were serially diluted in DMSO with DMSO to give 20× required final concentration in DMSO (15 uL compound+30 uL DMSO). The 20× compound stocks were diluted in DMSO with Assay Buffer 4-fold to reach 5× the final test concentration in 25% DMSO (10 uL compound+30 uL Assay Buffer). Solutions were mixed by aspiration several times with a pipette set on 50 uL volume. For the assay, 10 uL of 5× compound stock solutions in 25% DMSO were added to the assay plate in duplicate.\nFor two point screening, 10 mM stock compound solutions were diluted in DMSO to obtain 200 uM (20× the high test concentration) and then diluted 10-fold further to reach 20 uM (20× the low test concentration). The 20× stocks were diluted 4-fold with Assay Buffer (10 uL compound+30 uL Assay Buffer) to reach 5× the test concentrations (50 uM and 5 uM) and 10 uL were added to two assay plates for the duplicate wells. With each concentration tested on 2 plates, each set of 80 compounds used 4 assay plates (1 uM and 10 uM, with n=2).\n25-hydroxycholesterol (1 uM) was used to determine the level of NSB signal is prepared in DMSO as for compounds above, then diluted in Assay Buffer to give a final concentration of 5 uM. For 25-hydroxycholesterol in 25% DMSO/75% Assay Buffer; 10 uL per well was used for NSB samples. Wells for Total Binding and No Receptor sample determination contained 10 uL of 25% DMSO/75% Assay Buffer per well.\n25-[^3H]hydroxycholesterol was diluted in Assay Buffer to obtain 15 nM and vortex to mix. Add 20 uL to all wells to reach 6 nM final concentration in the assay.\nStock receptor solution was diluted in assay buffer to obtain 1.5 ug/mL in Assay Buffer. 20 uL was added to all wells. For No Receptor samples, 20 uL Assay Buffer was substituted for receptor solution.\nAssay plates were 96-well polypropylene V-bottom plates. 10 uL of 5× compound in 25% DMSO/75% Assay Buffer was added to Test wells. 10 uL of 25% DMSO/75% Assay Buffer was added to Total Binding or No Receptor wells. 10 uL of 5 uM 25-hydroxycholesterol in 25% DMSO/75% Assay Buffer was added to NSB wells. 20 uL of 15 nM 25-[^3H]hydroxycholesterol prepared in Assay Buffer was added to all wells. 20 uL of 1.5 ug/mL RORc receptor was added to wells (or […] Assay Buffer to No R wells). Following addition to the wells, the plates were incubated 3 h at 25° C.\nUsing a Packard Filtermate Harvester, the filter plate were washed 4 times following transfer of the incubated samples. Plates were dry-filtered completely (2 h at 50° C. or overnight at room temperature). 50 uL Microscint 0 was added to all wells and read on Topcount protocol Inverted.\nFinal concentrations were as follows: 50 mM HEPES buffer (pH 7.4); 150 mM NaCl; 1 mM DTT; 5 mM MgCl2; 0.01% BSA; 5% DMSO; 0.6 ug/mL RORc receptor; 6 nM 25-[^3H]hydroxycholesterol. For NSB wells, 1 uM 25-hydroxycholesterol was also present.", "units": {"IC50": "µM"}, "values": [
      {"smiles": "CCNC[C@@]12CC[C@@H](c3cc(-c4c(F)cccc4F)nnc31)C2(C)C", "note": "[Example 331, N-(((5R,8S)-3-(2,6-difluorophenyl)-9,9-dimethyl-5,6,7,8-tetrahydro-5,8-methanocinnolin-8-yl)methyl)ethanamine]", "IC50": 0.877},
      {"smiles": "CC1(C)[C@@H]2CC[C@@]1(C(=O)Nc1ccc(C#N)cn1)c1nnc(-c3ccccc3F)cc12", "note": "[Example 128, (5S,8S)-N-(5-cyanopyridin-2-yl)-3-(2-fluorophenyl)-9,9-dimethyl-5,6,7,8-tetrahydro-5,8-methanocinnoline-8-carboxamide]", "IC50": 0.848},
      {"smiles": "CCNC(=O)N(CC(F)F)C[C@@]12CC[C@@H](c3cc(-c4c(F)cccc4F)nnc31)C2(C)C", "note": "[Example 293, 1-(2,2-difluoroethyl)-1-(((5R,8S)-3-(2,6-difluorophenyl)-9,9-dimethyl-5,6,7,8-tetrahydro-5,8-methanocinnolin-8-yl)methyl)-3-ethylurea]", "IC50": 0.042},
      {"smiles": "CC(=O)NC(C)(C)[C@@]12CC[C@@H](c3cc(-c4c(F)cccc4F)nnc31)C2(C)C", "note": "[Example 321, N-(2-((5R,8S)-3-(2,6-difluorophenyl)-9,9-dimethyl-5,6,7,8-tetrahydro-5,8-methanocinnolin-8-yl)propan-2-yl)acetamide]", "IC50": 0.079},
      {"smiles": "CCc1nnc([C@@]23CC[C@@H](c4cc(-c5c(F)cccc5F)nnc42)C3(C)C)s1", "note": "[Example 124, (5R,8R)-3-(2,6-difluorophenyl)-9,9-dimethyl-8-(5-ethyl-1,3,4-thiadiazol-2-yl)-5,6,7,8-tetrahydro-5,8-methanocinnoline]", "IC50": 0.117},
      {"smiles": "CC1(C)[C@H]2CC[C@]1(c1nnc(C(F)F)o1)c1nnc(-c3c(F)cccc3F)cc12", "note": "[Example 138, 2-(difluoromethyl)-5-((5R,8R)-3-(2,6-difluorophenyl)-9,9-dimethyl-5,6,7,8-tetrahydro-5,8-methanocinnolin-8-yl)-1,3,4-oxadiazole]", "IC50": 0.17},
      {"smiles": "CN(C(=O)[C@]12CC[C@H](c3cc(-c4c(F)cccc4F)nnc31)C2(C)C)c1ccccn1", "note": "[Example 265, (5S,8S)-3-(2,6-difluorophenyl)-N,9,9-trimethyl-N-(pyridin-2-yl)-5,6,7,8-tetrahydro-5,8-methanocinnoline-8-carboxamide]", "IC50": 1.04},
      {"smiles": "CC1(C)[C@@H]2CC[C@@]1(C(=O)N1CC(F)(F)C1)c1nnc(-c3c(F)cccc3F)cc12", "note": "[Example 139, (3,3-difluoroazetidin-1-yl)((5S,8S)-3-(2,6-difluorophenyl)-9,9-dimethyl-5,6,7,8-tetrahydro-5,8-methanocinnolin-8-yl)methanone]", "IC50": 0.03},
      {"smiles": "CC1(C)[C@@H]2CC[C@@]1(C(=O)N1CC[C@@H](C#N)C1)c1nnc(-c3c(F)cccc3F)cc12", "note": "[Example 236, (R)-1-((5S,8S)-3-(2,6-difluorophenyl)-9,9-dimethyl-5,6,7,8-tetrahydro-5,8-methanocinnoline-8-carbonyl)pyrrolidine-3-carbonitrile]", "IC50": 0.405},
      {"smiles": "CC1(C)[C@@H]2CC[C@@]1(COCc1ccc(C(=O)O)cc1)c1nnc(-c3ccccc3F)cc12", "note": "[Example 71, 4-({[(5S,8S)-3-(2-fluorophenyl)-9,9-dimethyl-6,7-dihydro-5,8-methanocinnolin-8(5H)-yl]methoxy}methyl) benzoic acid]", "IC50": 0.284},
      {"smiles": "CC1(C)[C@H]2CC[C@]1(c1ncn[nH]1)c1nnc(-c3c(F)cccc3F)cc12", "note": "[Example 185, (5R,8R)-3-(2,6-difluorophenyl)-9,9-dimethyl-8-(1H-1,2,4-triazol-5-yl)-5,6,7,8-tetrahydro-5,8-methanocinnoline]", "IC50": 2.2},
      {"smiles": "Cn1c([C@@]23CC[C@@H](c4cc(-c5c(F)cccc5F)nnc42)C3(C)C)cccc1=O", "note": "[Example 165, 6-((5R,8S)-3-(2,6-difluorophenyl)-9,9-dimethyl-5,6,7,8-tetrahydro-5,8-methanocinnolin-8-yl)-1-methylpyridin-2(1H)-one]", "IC50": 0.008},
      {"smiles": "COCc1nc(C[C@@]23CC[C@@H](c4cc(-c5c(F)cccc5F)nnc42)C3(C)C)no1", "note": "[Example 62, (5R,8R)-3-(2,6-difluorophenyl)-8-{[5-(methoxymethyl)-1,2,4-oxadiazol-3-yl]methyl}-9,9-dimethyl-5,6,7,8-tetrahydro-5,8-methanocinnoline]", "IC50": 0.129},
      {"smiles": "CN(C)[C@@]12CC[C@@H](c3cc(-c4ccccc4F)nnc31)C2(C)C", "note": "[Example 90, (5R,8R)-3-(2-fluorophenyl)-N,N,9,9-tetramethyl-6,7-dihydro-5,8-methanocinnolin-8(5H)-amine]", "IC50": 0.192},
      {"smiles": "CC(=O)NCC(=O)N(CCO)C[C@@]12CC[C@@H](c3cc(-c4c(F)cccc4F)nnc31)C2(C)C", "note": "[Example 298, 2-acetamido-N-(((5R,8S)-3-(2,6-difluorophenyl)-9,9-dimethyl-5,6,7,8-tetrahydro-5,8-methanocinnolin-8-yl)methyl)-N-(2-hydroxyethyl)acetamide]", "IC50": 0.705},
      {"smiles": "CC(C)(C)OC(=O)NCCC1CN(C(=O)[C@]23CC[C@H](c4cc(-c5c(F)cccc5F)nnc42)C3(C)C)C1", "note": "[Example 168, tert-butyl (2-(1-((5S,8S)-3-(2,6-difluorophenyl)-9,9-dimethyl-5,6,7,8-tetrahydro-5,8-methanocinnoline-8-carbonyl)azetidin-3-yl)ethyl)carbamate]", "IC50": 2.97},
      {"smiles": "CN([C@@]12CC[C@@H](c3cc(-c4c(F)cccc4F)nnc31)C2(C)C)S(C)(=O)=O", "note": "[Example 286, N-((5R,8R)-3-(2,6-difluorophenyl)-9,9-dimethyl-5,6,7,8-tetrahydro-5,8-methanocinnolin-8-yl)-N-methylmethanesulfonamide]", "IC50": 0.219},
      {"smiles": "CC1(C)[C@H]2CC[C@]1(c1nnco1)c1nnc(-c3c(F)cccc3F)cc12", "note": "[Example 101]", "IC50": 0.192},
      {"smiles": "Cc1nnc(NC[C@@]23CC[C@@H](c4cc(-c5c(F)cccc5F)nnc42)C3(C)C)o1", "note": "[Example 144, N-(((5R,8S)-3-(2,6-difluorophenyl)-9,9-dimethyl-5,6,7,8-tetrahydro-5,8-methanocinnolin-8-yl)methyl)-5-methyl-1,3,4-oxadiazol-2-amine]", "IC50": 1.37},
      {"smiles": "CC1(C)[C@H]2CC[C@]1(CN1CCCS1(=O)=O)c1nnc(-c3c(F)cccc3F)cc12", "note": "[Example 284, 2-(((5R,8S)-3-(2,6-difluorophenyl)-9,9-dimethyl-5,6,7,8-tetrahydro-5,8-methanocinnolin-8-yl)methyl)isothiazolidine 1,1-dioxide]", "IC50": 0.856},
      {"smiles": "COCC[C@]12CC[C@H](c3cc(-c4ccccc4F)nnc31)C2(C)C", "note": "[Example 41, (5S,8S)-3-(2-fluorophenyl)-8-(2-methoxyethyl)-9,9-dimethyl-5,6,7,8-tetrahydro-5,8-methanocinnoline]", "IC50": 0.054},
      {"smiles": "CC1(C)[C@@H]2C[C@H](F)[C@@]1(C)c1nnc(-c3ccccc3F)cc12", "note": "[Example 32, (5S,7S,8R)-7-fluoro-3-(2-fluorophenyl)-8,9,9-trimethyl-5,6,7,8-tetrahydro-5,8-methanocinnoline]", "IC50": 0.969},
      {"smiles": "CCN(C[C@@]12CC[C@@H](c3cc(-c4c(F)cccc4F)nnc31)C2(C)C)c1nccc(=O)[nH]1", "note": "[Example 302, 2-((((5R,8S)-3-(2,6-difluorophenyl)-9,9-dimethyl-5,6,7,8-tetrahydro-5,8-methanocinnolin-8-yl)methyl)(ethyl)amino) pyrimidin-4(3H)-one]", "IC50": 0.108}
    ]}
  ]
}
